The values below come from US20260062412A1, “NITROGEN-CONTAINING HETEROCYCLIC COMPOUND HAVING MYT1 INHIBITORY ACTIVITY” (CHUGAI SEIYAKU KABUSHIKI KAISHA, priority 2023, published 2026).

A word on the IC50: it is the midpoint of a concentration-inhibition curve. High values mean weaker potency in that assay, low ones greater potency in that assay.

In the assay the target is MYT1 protein (Homo sapiens (Human), UniProt Q99640). Nature of the assay: Test for binding to ATP binding site of MYT1 (Kinase Tracer 178 / Eu-Anti-GST antibody TR-FRET). Conditions: ATP binding site of MYT1, 30 minutes at room temperature. A general note: Time-resolved FRET reads energy transfer from a long-lived donor to a nearby acceptor.
Sequence of MYT1 protein (Q99640 whole entry): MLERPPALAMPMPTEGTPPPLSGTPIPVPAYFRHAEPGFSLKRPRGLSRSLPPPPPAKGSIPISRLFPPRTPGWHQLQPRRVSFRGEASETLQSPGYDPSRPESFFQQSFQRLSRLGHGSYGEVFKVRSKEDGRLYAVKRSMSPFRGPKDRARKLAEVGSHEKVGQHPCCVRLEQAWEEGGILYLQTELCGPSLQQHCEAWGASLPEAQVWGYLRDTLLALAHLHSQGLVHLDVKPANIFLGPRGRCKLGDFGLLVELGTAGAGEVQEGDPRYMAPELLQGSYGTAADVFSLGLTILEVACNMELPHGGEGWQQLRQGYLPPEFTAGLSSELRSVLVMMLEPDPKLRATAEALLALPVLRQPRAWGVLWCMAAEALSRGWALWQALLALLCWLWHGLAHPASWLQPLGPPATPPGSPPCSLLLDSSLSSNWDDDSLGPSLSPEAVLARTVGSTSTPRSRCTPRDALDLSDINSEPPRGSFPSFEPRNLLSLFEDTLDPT

The structures appear in SMILES notation.

As for `Nc1c(-c2cc(F)c(F)c3[nH]ncc23)c2cc(OC3CCC3)c3ncccc3c2[nH]c1=O` [Compound C206, 3-Amino-6-cyclobutyloxy-4-(6,7-difluoro-1H-indazol-4-yl)-1H-1,7-phenanthrolin-2-one], the IC50 was 4.1 nM. This counts as single-digit nanomolar.

Turning to `Cn1cc(-c2cc3c(-c4cc(F)c(F)c5[nH]ncc45)c(N)c(=O)[nH]c3c3cccnc23)cn1` [Compound C207, 3-Amino-4-(6,7-difluoro-1H-indazol-4-yl)-6-(1-methylpyrazol-4-yl)-1H-1,7-phenanthrolin-2-one], the IC50 stood at 1 nM.

For the compound `Nc1c(-c2cc(F)c(F)c3[nH]ncc23)c2cc(N3CCOCC3)c3ncccc3c2[nH]c1=O` [Compound C208, 3-Amino-4-(6,7-difluoro-1H-indazol-4-yl)-6-morpholin-4-yl-1H-1,7-phenanthrolin-2-one], the concentration for half-maximal inhibition (IC50) worked out at 2.1 nM.

On to `CN1CCN(c2cc3c(-c4cc(F)c(F)c5[nH]ncc45)c(N)c(=O)[nH]c3c3cccnc23)CC1` [Compound C209, 3-Amino-4-(6,7-difluoro-1H-indazol-4-yl)-6-(4-methylpiperazin-1-yl)-1H-1,7-phenanthrolin-2-one], for which the concentration for half-maximal inhibition (IC50) turned out to be 1.5 nM.

Consider `Nc1c(-c2cc(F)c(F)c3[nH]ncc23)c2cc(O[C@H]3C[C@H](F)C3)c3ncccc3c2[nH]c1=O` [Compound C210, 3-Amino-4-(6,7-difluoro-1H-indazol-4-yl)-6-((1r,3r)-3-fluorocyclobutyl)oxy-1H-1,7-phenanthrolin-2-one], for which the 50% inhibitory concentration (IC50) stood at 1.3 nM.

Compound `N#C[C@H]1C[C@H](Oc2cc3c(-c4cc(F)c(F)c5[nH]ncc45)c(N)c(=O)[nH]c3c3cccnc23)C1` [Compound C211, (1r,3r)-3-[[3-Amino-4-(6,7-difluoro-1H-indazol-4-yl)-2-oxo-1H-1,7-phenanthrolin-6-yl]oxy]cyclobutane-1-carbonitrile] gave a half-maximal inhibitory concentration (IC50) of 0.87 nM.

`Nc1c(-c2cc(F)c(F)c3[nH]ncc23)c2cc(OCCC(F)F)c3ncccc3c2[nH]c1=O` [Compound C214, 3-Amino-4-(6,7-difluoro-1H-indazol-4-yl)-6-(3,3-difluoropropoxy)-1H-1,7-phenanthrolin-2-one] came in with an IC50 of 1.7 nM.

In turn, `Nc1c(-c2cc(F)c(F)c3[nH]ncc23)c2cc(-c3cccnc3)c3ncccc3c2[nH]c1=O` [Compound C215, 3-Amino-4-(6,7-difluoro-1H-indazol-4-yl)-6-pyridin-3-yl-1H-1,7-phenanthrolin-2-one] came in with a half-maximal inhibitory concentration (IC50) of 2.4 nM. The IC50 values of the last two compounds are within 1.5-fold of each other.

`Cc1c(C)c2c(-c3cc(F)c(F)c4[nH]ncc34)c(N)c(=O)[nH]c2c2cccnc12` [Compound C216, 3-Amino-4-(6,7-difluoro-1H-indazol-4-yl)-5,6-dimethyl-1H-1,7-phenanthrolin-2-one] came in with an IC50 of 3.4 nM.

`Cc1c(C2CC2)c2ncccc2c2[nH]c(=O)c(N)c(-c3cc(F)c(F)c4[nH]ncc34)c12` [Compound C217, 3-Amino-6-cyclopropyl-4-(6,7-difluoro-1H-indazol-4-yl)-5-methyl-1H-1,7-phenanthrolin-2-one] came in with a half-maximal inhibitory concentration (IC50) of 1.8 nM.

With `Cc1cc2ncccc2c2[nH]c(=O)c(N)c(-c3cc(F)c(F)c4[nH]ncc34)c12` [Compound C218, 3-Amino-4-(6,7-difluoro-1H-indazol-4-yl)-5-methyl-1H-1,7-phenanthrolin-2-one], the concentration for half-maximal inhibition (IC50) worked out at 0.43 nM.

Compound `Cc1c(F)c2c(-c3cc(F)c(F)c4[nH]ncc34)c(N)c(=O)[nH]c2c2cccnc12` [Compound C219, 3-Amino-4-(6,7-difluoro-1H-indazol-4-yl)-5-fluoro-6-methyl-1H-1,7-phenanthrolin-2-one] showed a 50% inhibitory concentration (IC50) of 2.1 nM.

The compound `Nc1c(-c2cc(F)c(F)c3[nH]ncc23)c2c(F)c(C3CC3)c3ncccc3c2[nH]c1=O` [Compound C220, 3-Amino-6-cyclopropyl-4-(6,7-difluoro-1H-indazol-4-yl)-5-fluoro-1H-1,7-phenanthrolin-2-one] yielded an IC50 of 4.1 nM.

Regarding `Nc1c(-c2cc(F)c(F)c3[nH]ncc23)c2c(F)cc3ncccc3c2[nH]c1=O` [Compound C221, 3-Amino-4-(6,7-difluoro-1H-indazol-4-yl)-5-fluoro-1H-1,7-phenanthrolin-2-one], the IC50 was found to be 0.72 nM. Against the preceding compound, the IC50 is about 5.7-fold lower.

In turn, `Cc1cc2c(-c3c(F)cc(F)c4[nH]ncc34)c(N)c(=O)[nH]c2c2cccnc12` [Compound C222, 3-Amino-4-(5,7-difluoro-1H-indazol-4-yl)-6-methyl-1H-1,7-phenanthrolin-2-one] showed a half-maximal inhibitory concentration (IC50) of 1.4 nM.

`Cc1cc2c(-c3nccc4[nH]ncc34)c(N)c(=O)[nH]c2c2cccnc12` [Compound C223, 3-Amino-6-methyl-4-(1H-pyrazolo[4,3-c]pyridin-4-yl)-1H-1,7-phenanthrolin-2-one] yielded a half-maximal inhibitory concentration (IC50) of 750 nM.

Consider `Cc1cc2c(-c3cccc4[nH]nnc34)c(N)c(=O)[nH]c2c2cccnc12` [Compound C224, 3-Amino-4-(1H-benzotriazol-4-yl)-6-methyl-1H-1,7-phenanthrolin-2-one], for which the half-inhibitory concentration (IC50) is 3000 nM.

`CC(C)(C)c1cc2c(-c3ccc(F)c4[nH]ncc34)c(N)c(=O)[nH]c2c2cccnc12` [Compound C225, 3-Amino-6-(tert-butyl)-4-(7-fluoro-1H-indazol-4-yl)-1H-1,7-phenanthrolin-2-one] had a 50% inhibitory concentration (IC50) of 1000 nM.

`Cc1cc2c(-c3ccc(F)c4[nH]ncc34)c(N)c(=O)[nH]c2c2ncccc12` [Compound D3, 3-Amino-4-(7-fluoro-1H-indazol-4-yl)-6-methyl-1H-1,10-phenanthrolin-2-one] gave a half-maximal inhibitory concentration (IC50) of 4.6 nM.

`Nc1c(-c2ccc(F)c3[nH]ncc23)c2ccc3cccnc3c2[nH]c1=O` [Compound D4, 3-Amino-4-(7-fluoro-1H-indazol-4-yl)-1H-1,10-phenanthrolin-2-one] registered an IC50 of 15 nM.

As for `CCc1cc2c(-c3ccc(F)c4[nH]ncc34)c(N)c(=O)[nH]c2c2ncccc12` [Compound D5, 3-Amino-6-ethyl-4-(7-fluoro-1H-indazol-4-yl)-1H-1,10-phenanthrolin-2-one], the half-maximal inhibitory concentration (IC50) came out at 6.4 nM.

The compound `CN1CCN(c2cc3c(-c4ccc(F)c5[nH]ncc45)c(N)c(=O)[nH]c3c3ncccc23)CC1` [Compound D6, 3-Amino-4-(7-fluoro-1H-indazol-4-yl)-6-(4-methylpiperazin-1-yl)-1H-1,10-phenanthrolin-2-one] showed a concentration for half-maximal inhibition (IC50) of 2.1 nM.

For the compound `Nc1c(-c2ccc(F)c3[nH]ncc23)c2cc(N3CCC(N4CCOCC4)CC3)c3cccnc3c2[nH]c1=O` [Compound D7, 3-Amino-4-(7-fluoro-1H-indazol-4-yl)-6-(4-morpholin-4-ylpiperidin-1-yl)-1H-1,10-phenanthrolin-2-one], the IC50 was 15 nM.

The compound `Nc1c(-c2ccc(F)c3[nH]ncc23)c2cc(N3CCC(F)(F)C3)c3cccnc3c2[nH]c1=O` [Compound D8, 3-Amino-6-(3,3-difluoropyrrolidin-1-yl)-4-(7-fluoro-1H-indazol-4-yl)-1H-1,10-phenanthrolin-2-one] registered an IC50 of 10 nM.

In turn, `Nc1c(-c2ccc(F)c3[nH]ncc23)c2cc(N3CCOCC3)c3cccnc3c2[nH]c1=O` [Compound D9, 3-Amino-4-(7-fluoro-1H-indazol-4-yl)-6-morpholin-4-yl-1H-1,10-phenanthrolin-2-one] returned an IC50 of 22 nM.

Consider `Nc1c(-c2ccc(F)c3[nH]ncc23)c2cc(N3CC4(COC4)C3)c3cccnc3c2[nH]c1=O` [Compound D10, 3-Amino-4-(7-fluoro-1H-indazol-4-yl)-6-(2-oxa-6-azaspiro[3,3]heptan-6-yl)-1H-1,10-one], for which the IC50 is 3.9 nM.
